Data published in the NIST ThermoML archive (doi:10.1021/je100598x).

Test: cn = amount concentration of the nth substance listed, in mol/dm3
Settings: 101 kPa, Liquid, Direct current cell with electrodes

CCCCCCCCCCCC[N+](C)(C)C.[Br-] [dodecyltrimethylammonium bromide] + O
electrical conductivity [S/m]
Settings | 288.15 K | 293.15 K | 298.15 K | 303.15 K
c1 = 0.001961 | 0.0157 | 0.0175 | 0.0196 | 0.0218
c1 = 0.003846 | 0.0294 | 0.0332 | 0.0372 | 0.0411
c1 = 0.00566 | 0.0421 | 0.0478 | 0.0533 | 0.0592
c1 = 0.007407 | 0.0542 | 0.0614 | 0.0689 | 0.0762
c1 = 0.009091 | 0.0654 | 0.0743 | 0.0833 | 0.0921
c1 = 0.01071 | 0.0762 | 0.0865 | 0.0964 | 0.107
c1 = 0.01228 | 0.0863 | 0.098 | 0.11 | 0.1218
c1 = 0.01379 | 0.0954 | 0.109 | 0.1222 | 0.136
c1 = 0.01525 | 0.105 | 0.119 | 0.1337 | 0.148
c1 = 0.01667 | 0.1103 | 0.125 | 0.1405 | 0.157
c1 = 0.01758 | 0.1125 | 0.128 | 0.1433 | 0.1605
c1 = 0.01848 | 0.1143 | 0.13 | 0.146 | 0.1634
c1 = 0.01936 | 0.116 | 0.1315 | 0.148 | –
c1 = 0.02021 | 0.117 | 0.1332 | 0.1501 | –
c1 = 0.02105 | 0.119 | 0.135 | 0.1521 | –
c1 = 0.02188 | 0.1203 | 0.137 | 0.154 | –
c1 = 0.02268 | 0.1216 | 0.138 | 0.156 | –
c1 = 0.02347 | 0.1229 | 0.14 | 0.158 | –
c1 = 0.02424 | 0.1242 | 0.1411 | 0.159 | –
c1 = 0.025 | 0.126 | 0.1425 | 0.161 | –
c1 = 0.02611 | 0.127 | 0.145 | 0.1636 | –
c1 = 0.02718 | 0.129 | 0.147 | 0.166 | –
c1 = 0.02823 | 0.131 | 0.149 | 0.169 | –
c1 = 0.02925 | 0.1327 | 0.151 | 0.171 | –
c1 = 0.03023 | 0.1344 | 0.1529 | 0.1733 | –
